Measurements: patent publication US9725460B2, “Oridonin analogs, compositions, and methods related thereto” (THE BOARD OF REGENTS OF THE UNIVERSITY OF TEXAS SYSTEM, priority 2013, dated 2017)
Where two headings read alike, the source gives them in different places.

Assays:
Details in all cases: Homo sapiens
MDA-MB-231 = assay: MTT cancer cell proliferation assay, MDA-MB-231; type: cell-based, human
Description: (§1) In Vitro Determination of Effects of Synthesized Diterpenoids on Cancer Cell Proliferation. Breast cancer cell lines MCF-7, MDA-MB-231, […] and MCF/ADR were seeded in 96-well plates at a density of 1×10^4 cells/well and treated with DMSO and 0.01, 0.1, 1, 5, 10, and 100 μM of individual compound for 48 h, and then 20 μL of 3-(4,5-dimethylthiazol-2-yl)-2,5-diphenyltetrazolium bromide (MTT) (5 mg/mL in PBS) was added to each well and further incubated for another 4 h. Then MTT solution was removed, and 150 μL of DMSO was added to each well. Absorbance of all wells was determined by measuring OD at 550 nm after a 10 min incubation on a 96-well GlowMaxate absorbance reader (Promega, Madison, Wis.). Each individual compound was tested in quadruplicate wells for each concentration.
(§2) The growth inhibitory effects of the newly generated pyran-fused diterpenoids were evaluated in four breast cancer cell lines MCF-7 (ER-positive), MDAMB-231 (ER-negative and triple-negative), MDA-MB-468 (ER-negative and triple-negative) as well as MCF-7/ADR (adriamycin-resistant) using MTT assays as described in the Experimental Section.

MCF-7 = assay: MTT cancer cell proliferation assay, MCF-7; type: cell-based, human
Description: as §1, §2

AsPC1 = assay: Cancer cell proliferation assay, AsPC1; type: cell-based
Description: (§3) In Vitro Determination of Effects of Synthesized Diterpenoids on Cancer Cell Proliferation. […] Then MTT solution was removed, and 150 μL of DMSO was added to each well. Absorbance of all wells was determined by measuring OD at 550 nm after a 10 min incubation on a 96-well GlowMaxate absorbance reader (Promega, Madison, Wis.). Each individual compound was tested in quadruplicate wells for each concentration.

Panc-1 = assay: Cancer cell proliferation assay, Panc-1; type: cell-based
Description: as §3

[1] = MDA-MB-231, read-out: IC50 (μM) MDA-MB-231
[2] = MCF7, read-out: IC50 (μM) MCF-7
[3] = ASPC1, read-out: IC50 (μM) AsPC1
[4] = PANC-1, read-out: IC50 (μM) Panc-1
[5] = MDA-MB-231, Table 2a, A-ring modified analogues, read-out: IC50 (μM) MDA-MB-231
[6] = MCF7, Table 2a, A-ring modified analogues, read-out: IC50 (μM) MCF-7
[7] = ASPC1, Table 2a, A-ring modified analogues, read-out: IC50 (μM) AsPC1
[8] = PANC-1, Table 2a, A-ring modified analogues, read-out: IC50 (μM) Panc-1
[9] = MDA-MB-231, read-out: Antiproliferative effect MDA-MB-231 (IC50)
[10] = MCF7, read-out: Antiproliferative effect MCF-7 (IC50)
[11] = MDA-MB-231, Table 1b, triazole substituted analogues, mean of three experiments, read-out: IC50 (μM) MDA-MB-231
[12] = MCF7, Table 1b, triazole substituted analogues, mean of three experiments, read-out: IC50 (μM) MCF-7

| Compound | IC50 (MDA-MB-231; [1]) [µM] | IC50 (MCF-7; [2]) [µM] | IC50 (AsPC1; [3]) [µM] | IC50 (Panc-1; [4]) [µM] | IC50 (MDA-MB-231; [11]) [µM] | IC50 (MCF-7; [12]) [µM] | also measured |
| --- | --- | --- | --- | --- | --- | --- | --- |
| C=C1C(=O)[C@]23[C@H](O)[C@H]1CC[C@H]2[C@@]12COC3(O)[C@@H](O)[C@@H]1C(C)(C)CC1=C2O[C@]2(CC1)CC(C)(C)[C@H]1[C@H](O)[C@]3(O)OC[C@]1(C2=O)[C@@H]1CC[C@H]2C(=C)C(=O)[C@]13[C@@H]2O [CYD-5-40-2, (2R,4aR,5S,6S,6aR,6a′R,7′S,8′S,8a′R,9S,11aS,11bS,11′S,13a′S,13b′S,14R,16′R)-5,6,7′,8′,14,16′-hexahydroxy-4,4,6′,6′-tetramethyl-8,10′-dimethylene-4,4a,5,6,6′,6a′,7′,8′,9,10,11,11a,11′,12′,13′,13a′-hexadecahydro-3′H-spiro[6,11b-(epoxymethano)-6a,9-methanocyclohepta[a]naphthalene-2,2′-8,13b-(epoxymethano)-8a,11-methanocyclohepta[3,4]benzo[1,2-h]chromene]-1,7,9′(3H,4′H,5′H,8H,10′H)-trione] | 9.64 | 4.82 | 10.2 | 8.07 | – | – | – |
| C=C1C(=O)[C@]23[C@H](O)[C@H]1CC[C@H]2[C@@]12COC3(O)[C@@H](O)[C@@H]1C(C)(C)CC13CC[C@]4(CC(C)(C)[C@H]5[C@H](O)[C@]6(O)OC[C@]5(C4=O)[C@@H]4CC[C@H]5C(=C)C(=O)[C@]46[C@@H]5O)OC12O3 (stereo partly drawn) [CYD-6-39, (2R,4aR,4a′R,5′S,6aR,6′S,6a′R,7S,8S,8aR,9′S,11S,11a′S,11b′S,13aS,13bS,13cR,14′R,17R)-5′,6′,7,8,14′,17-hexahydroxy-4′,4′,6,6-tetramethyl-8′,10-dimethylenehexadecahydro-3H-spiro[4a,13c-epoxy-8,13b-(epoxymethano)-8a,11-methanocyclohepta[3,4]benzo[1,2-h]chromene-2,2′-6,11b-(epoxymethano)-6a,9-methanocyclohepta[a]naphthalene]-1′,7′,9(3′H,4H,5H,8′H,10H)-trione] | – | – | – | – | – | – | IC50 (MDA-MB-231; [5]): > 10 µM; IC50 (MCF-7; [6]): > 10 µM; IC50 (AsPC1; [7]): 104 µM; IC50 (Panc-1; [8]): > 10 µM |
| C=C1C(=O)[C@@]23[C@@H]4OC(C)(C)OC25OC[C@]2(C=CCC(C)(C)[C@H]2[C@@H]5O)[C@@H]3CC[C@@H]14 [CYD-6-75, (3S,3aR,3a^1R,6aR,7S,7aR,11aR,11bS)-7-hydroxy-5,5,8,8-tetramethyl-15-methylene-2,3,3a,7,7a,8,9,11b-octahydro-1H-6a,11a-(epoxymethano)-3,3a^1-ethanophenanthro[1,10-de][1,3]dioxin-14-one] | – | – | – | – | – | – | IC50 (MDA-MB-231; [5]): 3.95 µM; IC50 (MCF-7; [6]): 0.95 µM; IC50 (AsPC1; [7]): 6.78 µM; IC50 (Panc-1; [8]): 7.25 µM |
| C=C1C(=O)[C@@]23[C@@H]4OC(C)(C)OC25OC[C@]2(C(=O)/C(=C\N(C)C)CC(C)(C)[C@H]2[C@@H]5O)[C@@H]3CC[C@@H]14 [CYD-6-77, (3S,3aR,3a^1R,6aR,7S,7aR,11aS,11bS,Z)-10-((dimethylamino)methylene)-7-hydroxy-5,5,8,8-tetramethyl-15-methyleneoctahydro-1H-6a,11a-(epoxymethano)-3,3a^1-ethanophenanthro[1,10-de][1,3]dioxine-11,14(2H)-dione] | 165 | 9.07 | 11.8 | > 10 | – | – | – |
| C=C1C(=O)[C@@]23[C@@H]4OC(C)(C)OC25OC[C@]2(C=C[C@H](O)C(C)(C)[C@H]2[C@@H]5O)[C@@H]3CC[C@@H]14 [CYD-6-81, (3S,3aR,3a^1R,6aR,7S,7aS,9S,11aR,11bS)-7,9-dihydroxy-5,5,8,8-tetramethyl-15-methylene-2,3,3a,7,7a,8,9,11b-octahydro-1H-6a,11a-(epoxymethano)-3,3a^1-ethanophenanthro[1,10-de][1,3]dioxin-14-one] | – | – | – | – | – | – | IC50 (MDA-MB-231; [5]): 10.5 µM; IC50 (MCF-7; [6]): 2.56 µM; IC50 (AsPC1; [7]): > 10 µM; IC50 (Panc-1; [8]): 5.24 µM |
| C=C1C(=O)[C@]23[C@H](O)[C@H]1CC[C@H]2[C@]12C=CCC(C)(C)[C@H]1[C@H](O)[C@@]3(O)OC2 [CYD-6-82, (4aR,5S,6S,6aR,9S,11aS,11bR,14R)-5,6,14-trihydroxy-4,4-dimethyl-8-methylene-4,4a,5,6,9,10,11,11a-octahydro-3H-6,11b-(epoxymethano)-6a,9-methanocyclohepta[a]naphthalen-7(8H)-one] | 3.9 | 0.79 | 1.09 | 1.19 | – | – | – |
| C=C1C(=O)[C@]23[C@H](O)[C@H]1CC[C@H]2[C@]12C=C[C@H](O)C(C)(C)[C@H]1[C@H](O)[C@@]3(O)OC2 [CYD-6-90, (3S,4aS,5S,6S,6aR,9S,11aS,11bR,14R)-3,5,6,14-tetrahydroxy-4,4-dimethyl-8-methylene-4,4a,5,6,9,10,11,11a-octahydro-3H-6,11b-(epoxymethano)-6a,9-methanocyclohepta[a]naphthalen-7(8H)-one] | – | – | – | – | – | – | IC50 (MDA-MB-231; [5]): 26.1 µM; IC50 (MCF-7; [6]): 1.21 µM; IC50 (AsPC1; [7]): > 10 µM; IC50 (Panc-1; [8]): > 10 µM |
| C=C1C(=O)[C@]23[C@H](O)[C@H]1CC[C@H]2[C@]12C=CC(=O)C(C)(C)[C@H]1[C@H](O)[C@@]3(O)OC2 [CYD-6-93, (4aS,5S,6S,6aR,9S,11aS,11bR,14R)-5,6,14-trihydroxy-4,4-dimethyl-8-methylene-4,4a,5,6,9,10,11,11a-octahydro-3H-6,11b-(epoxymethano)-6a,9-methanocyclohepta[a]naphthalene-3,7(8H)-dione] | 10.3 | 0.71 | 10.2 | 9.67 | – | – | IC50 (MDA-MB-231; [9]): 9.39 ± 0.48 µM; IC50 (MCF-7; [10]): 3.48 ± 2.16 µM |
| C=C1C(=O)[C@@]23C(=O)[C@@H](O)[C@@H]4C(C)(C)[C@@H]5OC[C@]4(C(=O)/C5=C\O)[C@@H]2CC[C@@H]1[C@H]3O [CYD-7-5] | > 10 | > 10 | > 10 | > 10 | – | – | IC50 (MDA-MB-231; [9]): > 30 µM; IC50 (MCF-7; [10]): > 30 µM |
| C=C1C(=O)[C@@]23C(=O)[C@@H](O)[C@@H]4C(C)(C)[C@@H]5OC[C@]4(C(=O)/C5=C/OC)[C@@H]2CC[C@@H]1[C@H]3O [CYD-7-13] | – | – | – | – | – | – | IC50 (MDA-MB-231; MDA-MB-231, Table 1c, dienone analogues, mean ± SE of three experiments, read-out: Antiproliferative effect MDA-MB-231 (IC50)): > 30 µM; IC50 (MCF-7; MCF7, Table 1c, dienone analogues, mean ± SE of three experiments, read-out: Antiproliferative effect MCF-7 (IC50)): 10.2 ± 3.07 µM |
| C=C1C(=O)[C@]23[C@H](O)[C@H]1CC[C@H]2[C@]12C=C[C@@H](n4cc(-c5ccccc5)nn4)C(C)(C)[C@H]1[C@H](O)C3(O)OC2 [CYD-7-82] | – | – | – | – | 1.8 | 2.3 | – |
| C=C1C(=O)[C@@]23[C@@H]4OC(C)(C)OC25OC[C@]2([C@@H](n6cc(-c7ccccc7)nn6)C=CC(C)(C)[C@H]2[C@@H]5O)[C@@H]3CC[C@@H]14 [CYD-7-86] | – | – | – | – | 0.48 | 0.38 | – |
| C=C1C(=O)[C@]23[C@H](O)[C@H]1CC[C@H]2[C@@]12COC3(O)[C@@H](O)[C@@H]1C(C)(C)C=C[C@@H]2n1cc(-c2ccccc2)nn1 [CYD-7-90] | – | – | – | – | 1.8 | 2.1 | – |
| C=C1C(=O)[C@@]23[C@@H]4OC(C)(C)OC25OC[C@]2([C@H](O)[C@@H](n6cc(-c7ccc(C(C)(C)C)cc7)nn6)CC(C)(C)[C@H]2[C@@H]5O)[C@@H]3CC[C@@H]14 [CYD-8-3] | – | – | – | – | 1.1 | 2 | – |
| C=C1C(=O)[C@]23[C@H](O)[C@H]1CC[C@H]2[C@@]12COC3(O)[C@@H](O)[C@@H]1C(C)(C)C[C@H](n1cc(-c3ccc(C(C)(C)C)cc3)nn1)[C@H]2O [CYD-8-5] | – | – | – | – | 3.5 | 1.9 | – |
